Literature values as cited in patent US7994210B2, “Method of treating Down Syndrome” (priority 2004, dated 2011).
Where two headings read alike, the source gives them in different places.

Experiments:
acetylcholinesterase = acetylcholinesterase (Homo sapiens, UniProt P22303)
[1] = test system: beta-amyloid precursor protein (beta-APP)
[2] = listed as (+)9-N-phenylcarbinol eseroline

acetylcholinesterase, sequence (P22303 32-614, species assumed): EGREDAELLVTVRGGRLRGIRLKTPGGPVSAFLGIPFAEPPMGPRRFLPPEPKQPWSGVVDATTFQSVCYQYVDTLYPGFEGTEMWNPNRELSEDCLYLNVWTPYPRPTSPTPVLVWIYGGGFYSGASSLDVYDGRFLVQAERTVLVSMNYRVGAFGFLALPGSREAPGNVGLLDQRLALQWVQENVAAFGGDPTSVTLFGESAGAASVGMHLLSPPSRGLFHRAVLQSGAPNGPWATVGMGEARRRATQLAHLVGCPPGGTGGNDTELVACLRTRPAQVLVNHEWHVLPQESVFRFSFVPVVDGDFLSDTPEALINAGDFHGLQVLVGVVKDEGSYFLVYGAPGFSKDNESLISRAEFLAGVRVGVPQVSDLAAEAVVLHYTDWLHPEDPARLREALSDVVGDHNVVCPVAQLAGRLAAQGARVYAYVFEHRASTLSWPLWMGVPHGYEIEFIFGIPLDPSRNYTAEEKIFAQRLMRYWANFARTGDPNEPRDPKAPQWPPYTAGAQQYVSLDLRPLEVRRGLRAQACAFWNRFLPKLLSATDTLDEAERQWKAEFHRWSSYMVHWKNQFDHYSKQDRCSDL

Q: For CN1CC[C@]2(C)c3cc(OC(=O)Nc4ccccc4)ccc3N(C)[C@H]12 [(+)-Phenserine, (+)9-N-phenylcarbinol eseroline], which acetylcholinesterase inhibitor activity (acetylcholinesterase) is on record?
A: lacking significant acetylcholinesterase inhibitor activity

Q: What about the acetylcholinesterase inhibitor activity (acetylcholinesterase; [2]) of the same compound?
A: lacks anticholinesterase activity

Q: And the “production/formation of β-APP” value [1]?
A: reduces the production of β-APP

Q: And the “production/formation of β-APP” value [1, 2]?
A: inhibits β-APP production
